Results on 1 compound are retold here after publication PMC9629493, “Crystal structure of DNA polymerase I from Thermus phage G20c” (Acta Crystallographica. Section D, Structural Biology, 2022).

The target in test [1] is T1, ExnV1 (uncultured virus, UniProt Z9YD31SC24).
T1 construct: full 314-residue 3'-5' exonuclease domain protein, N-terminal His6 tag (pJOE5751.1, pLEI447.1), E. coli JM109, about 36 kDa, no oligomerization
Put plainly: differential scanning fluorimetry. It counts as binding. To be noted: with MgCl2. (In general: In DSF a fluorescence change marks the thermal transition of the protein.)

The target in test [2] is T1, ExnV1. Put plainly: X-ray crystal structure, […] A. It counts as binding. The conditions noted are these: TMP and MgCl2 added before concentration; 5 mM TMP, 10 mM MgCl2 in cryo-solution; 100 mM Bicine pH 9.3; exonuclease active site.

`Cc1cn([C@H]2C[C@H](O)[C@@H](COP(=O)(O)O)O2)c(=O)[nH]c1=O` [thymidine monophosphate]: the thermal stabilization entry in test [1] is “Differential scanning fluorimetry showed that ExnV1 was stabilized by thymidine monophosphate (TMP) and MgCl2”. In addition, in test [2], the “X-ray crystal structure, 2.19 A” value was “the second O atom of the phosphate group of the substrate nucleotide”.
